ChEMBL document CHEMBL3885861, “Open TG-GATES”

Species: Rattus norvegicus
Experiment: Open TG-GATES - Regimen: Daily Repeat
Assay type: toxicity, organism-based, Sprague-Dawley
Set-up: regimen Daily Repeat, gender Male, age 6 weeks
Settings: in vivo, po, 1 mg/kg, route gavage, dose level Low; for APTT / Bas / Eos / Fbg / Hb / Ht / Lym / MCH / MCHC / MCV / Mono / Neu / PT / Plat / RBC / Ret / WBC: tissue Blood; for KIDNEY_L / KIDNEY_R / KIDNEY_TOTAL: tissue Kidney; for LIVER: tissue Liver; for A/G / ALP / ALT / AST / BUN / CRE / Ca / Cl / DBIL / GLC / IP / K / LDH / Na / PL / RALB / TBIL / TC / TG / TP / gamma-GTP: tissue Plasma

Compound O=NN(CCCl)C(=O)NC1CCCCC1 [LOMUSTINE] has a TERMINAL_BW (72 h, time 3 day) of 228.6 g, an APTT (72 h, time 3 day) of 15.3 s and a Bas (72 h, time 3 day) of 0%. The Eos (72 h, time 3 day) was 0.8%, the Fbg (72 h, time 3 day) was 224.2 mg/dL and the Hb (72 h, time 3 day) was 12.9 g/dL. For the same compound, the Ht (72 h, time 3 day) was 38.5%, the Lym (72 h, time 3 day) was 81.2% and the MCH (72 h, time 3 day) was 21.6 pg. The MCHC (72 h, time 3 day) was 33.4%, the MCV (72 h, time 3 day) was 64.8 fL and the Mono (72 h, time 3 day) was 7.6%. It also gave a Neu (72 h, time 3 day) of 10.2%, a PT (72 h, time 3 day) of 11.8 s and a Plat (72 h, time 3 day) of 108.2 x10_4/uL. For the same compound, the RBC (72 h, time 3 day) was 594.4 x10_4/ul, the Ret (72 h, time 3 day) was 8.5% and the WBC (72 h, time 3 day) was 121.5 x10_2/uL. It also gave a KIDNEY_L (72 h, time 3 day) of 1.1 g, a KIDNEY_R (72 h, time 3 day) of 1.1 g and a KIDNEY_TOTAL (72 h, time 3 day) of 2.2 g. The LIVER (72 h, time 3 day) was 11.3 g, the A/G (72 h, time 3 day) was 2.2 and the ALP (72 h, time 3 day) was 863 IU/L. It also gave an ALT (72 h, time 3 day) of 30 IU/L, an AST (72 h, time 3 day) of 62 IU/L and a BUN (72 h, time 3 day) of 16 mg/dL. For the same compound, the CRE (72 h, time 3 day) was 0.5 mg/dL, the Ca (72 h, time 3 day) was 11.1 mg/dL and the Cl (72 h, time 3 day) was 105 meq/L. For the same compound, the DBIL (72 h, time 3 day) was 0.022 mg/dL, the GLC (72 h, time 3 day) was 188 mg/dL and the IP (72 h, time 3 day) was 8.1 mg/dL. It also gave a K (72 h, time 3 day) of 4.9 meq/L, an LDH (72 h, time 3 day) of 78 IU/L and a Na (72 h, time 3 day) of 138.6 meq/L. The PL (72 h, time 3 day) was 144 mg/dL, the RALB (72 h, time 3 day) was 3.9 g/dL and the TBIL (72 h, time 3 day) was 0.3 mg/dL. For the same compound, the TC (72 h, time 3 day) was 79.2 mg/dL, the TG (72 h, time 3 day) was 85.8 mg/dL and the TP (72 h, time 3 day) was 5.7 g/dL. It also gave a gamma-GTP (72 h, time 3 day) of 1 IU/L, a TERMINAL_BW ([…], time 7 day) of 255.7 g and a TERMINAL_BW ([…], time 14 day) of 313 g. The TERMINAL_BW ([…], time 28 day) was 386.4 g, the APTT ([…], time 7 day) was 16.6 s and the Bas ([…], time 7 day) was 0%. It also gave an Eos ([…], time 7 day) of 0.6%, a Fbg ([…], time 7 day) of 235.2 mg/dL and a Hb ([…], time 7 day) of 13.3 g/dL. For the same compound, the Ht ([…], time 7 day) was 39.5%, the Lym ([…], time 7 day) was 80% and the MCH ([…], time 7 day) was 21.3 pg. It also gave an MCHC ([…], time 7 day) of 33.6%, an MCV ([…], time 7 day) of 63.6 fL and a Mono ([…], time 7 day) of 7.4%. The Neu ([…], time 7 day) was 12.4%, the PT ([…], time 7 day) was 11.7 s and the Plat ([…], time 7 day) was 109.6 x10_4/uL. For the same compound, the RBC ([…], time 7 day) was 621.2 x10_4/ul, the Ret ([…], time 7 day) was 6.3% and the WBC ([…], time 7 day) was 117.4 x10_2/uL. The APTT ([…], time 14 day) was 16.9 s, the Bas ([…], time 14 day) was 0% and the Eos ([…], time 14 day) was 0.6%. It also gave a Fbg ([…], time 14 day) of 235 mg/dL, a Hb ([…], time 14 day) of 13.9 g/dL and a Ht ([…], time 14 day) of 41.4%. The Lym ([…], time 14 day) was 83.4%, the MCH ([…], time 14 day) was 20.8 pg and the MCHC ([…], time 14 day) was 33.6%. The MCV ([…], time 14 day) was 61.9 fL, the Mono ([…], time 14 day) was 4.8% and the Neu ([…], time 14 day) was 11.4%. For the same compound, the PT ([…], time 14 day) was 11.5 s, the Plat ([…], time 14 day) was 119.3 x10_4/uL and the RBC ([…], time 14 day) was 669.6 x10_4/ul. For the same compound, the Ret ([…], time 14 day) was 5.5%, the WBC ([…], time 14 day) was 116.8 x10_2/uL and the APTT ([…], time 28 day) was 16.6 s. It also gave a Bas ([…], time 28 day) of 0%, an Eos ([…], time 28 day) of 1.2% and a Fbg ([…], time 28 day) of 225 mg/dL. For the same compound, the Hb ([…], time 28 day) was 15.1 g/dL, the Ht ([…], time 28 day) was 45.4% and the Lym ([…], time 28 day) was 82%. For the same compound, the MCH ([…], time 28 day) was 19 pg, the MCHC ([…], time 28 day) was 33.3% and the MCV ([…], time 28 day) was 57.1 fL. The Mono ([…], time 28 day) was 5.4%, the Neu ([…], time 28 day) was 11.8% and the PT ([…], time 28 day) was 11.6 s. For the same compound, the Plat ([…], time 28 day) was 109.6 x10_4/uL, the RBC ([…], time 28 day) was 797.4 x10_4/ul and the Ret ([…], time 28 day) was 2.6%. It also gave a WBC ([…], time 28 day) of 167.6 x10_2/uL, a KIDNEY_L ([…], time 7 day) of 1.2 g and a KIDNEY_R ([…], time 7 day) of 1.2 g. For the same compound, the KIDNEY_TOTAL ([…], time 7 day) was 2.3 g, the KIDNEY_L ([…], time 14 day) was 1.3 g and the KIDNEY_R ([…], time 14 day) was 1.2 g. For the same compound, the KIDNEY_TOTAL ([…], time 14 day) was 2.5 g, the KIDNEY_L ([…], time 28 day) was 1.3 g and the KIDNEY_R ([…], time 28 day) was 1.4 g. For the same compound, the KIDNEY_TOTAL ([…], time 28 day) was 2.7 g, the LIVER ([…], time 7 day) was 12.4 g and the LIVER ([…], time 14 day) was 14.7 g. For the same compound, the LIVER ([…], time 28 day) was 16.7 g, the A/G ([…], time 7 day) was 2 and the ALP ([…], time 7 day) was 865.2 IU/L. The ALT ([…], time 7 day) was 35.2 IU/L, the AST ([…], time 7 day) was 61.6 IU/L and the BUN ([…], time 7 day) was 17.6 mg/dL. It also gave a CRE ([…], time 7 day) of 0.5 mg/dL, a Ca ([…], time 7 day) of 10.9 mg/dL and a Cl ([…], time 7 day) of 106 meq/L. It also gave a DBIL ([…], time 7 day) of 0.018 mg/dL, a GLC ([…], time 7 day) of 195.2 mg/dL and an IP ([…], time 7 day) of 7.5 mg/dL. The K ([…], time 7 day) was 4.8 meq/L, the LDH ([…], time 7 day) was 87.8 IU/L and the Na ([…], time 7 day) was 139.6 meq/L. The PL ([…], time 7 day) was 148.2 mg/dL, the RALB ([…], time 7 day) was 3.9 g/dL and the TBIL ([…], time 7 day) was 0.3 mg/dL. For the same compound, the TC ([…], time 7 day) was 79.2 mg/dL, the TG ([…], time 7 day) was 71.4 mg/dL and the TP ([…], time 7 day) was 5.9 g/dL. For the same compound, the gamma-GTP ([…], time 7 day) was 1.2 IU/L, the A/G ([…], time 14 day) was 2 and the ALP ([…], time 14 day) was 821 IU/L. It also gave an ALT ([…], time 14 day) of 26.2 IU/L, an AST ([…], time 14 day) of 56.8 IU/L and a BUN ([…], time 14 day) of 19.2 mg/dL. The CRE ([…], time 14 day) was 0.5 mg/dL, the Ca ([…], time 14 day) was 11.3 mg/dL and the Cl ([…], time 14 day) was 106.6 meq/L. For the same compound, the DBIL ([…], time 14 day) was 0.01 mg/dL, the GLC ([…], time 14 day) was 184.4 mg/dL and the IP ([…], time 14 day) was 7.4 mg/dL. The K ([…], time 14 day) was 4.8 meq/L, the LDH ([…], time 14 day) was 84.6 IU/L and the Na ([…], time 14 day) was 139.8 meq/L. For the same compound, the PL ([…], time 14 day) was 175.2 mg/dL, the RALB ([…], time 14 day) was 4 g/dL and the TBIL ([…], time 14 day) was 0.3 mg/dL. It also gave a TC ([…], time 14 day) of 83.2 mg/dL, a TG ([…], time 14 day) of 141.4 mg/dL and a TP ([…], time 14 day) of 6.1 g/dL. It also gave a gamma-GTP ([…], time 14 day) of 1.8 IU/L, an A/G ([…], time 28 day) of 1.8 and an ALP ([…], time 28 day) of 696.4 IU/L. It also gave an ALT ([…], time 28 day) of 52.8 IU/L, an AST ([…], time 28 day) of 103.6 IU/L and a BUN ([…], time 28 day) of 20.4 mg/dL. The CRE ([…], time 28 day) was 0.4 mg/dL, the Ca ([…], time 28 day) was 10.9 mg/dL and the Cl ([…], time 28 day) was 105.6 meq/L. It also gave a DBIL ([…], time 28 day) of 0.006 mg/dL, a GLC ([…], time 28 day) of 195.2 mg/dL and an IP ([…], time 28 day) of 6.5 mg/dL. The K ([…], time 28 day) was 4.5 meq/L, the LDH ([…], time 28 day) was 172.8 IU/L and the Na ([…], time 28 day) was 139.6 meq/L. The PL ([…], time 28 day) was 165.2 mg/dL, the RALB ([…], time 28 day) was 4.2 g/dL and the TBIL ([…], time 28 day) was 0.3 mg/dL. The TC ([…], time 28 day) was 78.6 mg/dL, the TG ([…], time 28 day) was 139.8 mg/dL and the TP ([…], time 28 day) was 6.5 g/dL. For the same compound, the gamma-GTP ([…], time 28 day) was 1.6 IU/L.
